What all share (assay type): biochemical
Experiment [1] deals with T1, sPLA2 IIA (Homo sapiens, UniProt P14555).
T1 construct: purchased Cayman Chemical Company
T1 sequence (P14555 21-144): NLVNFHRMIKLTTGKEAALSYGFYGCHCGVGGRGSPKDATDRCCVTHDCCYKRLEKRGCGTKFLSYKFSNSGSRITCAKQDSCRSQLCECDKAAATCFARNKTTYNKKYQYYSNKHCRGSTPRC
Kind of experiment: Phospholipase A2 (PLA2) inhibition assay, sPLA2 IIA. Particulars: Table 2; for Selectivity Index (sPLA2/Lp-PLA2): ratio of sPLA2 IIA IC50 to Lp-PLA2 IC50. The procedure:
(§1) Phospholipase inhibition by synthesized compounds toward human Lp-PLA2, sPLA2 IIA and IV (Cayman Chemical Company, Ann Arbor, Mich.) are evaluated using a 96-well plate format. In this assay, different concentrations of test compounds (0.001-30 μM) are incubated with the PLA2 enzymes. The substrate hydrolysis by PLA2 is monitored by UV-spectroscopy. […] The concentration of the test compound causing 50% inhibition (IC50, μM) is determined from the concentration-inhibition response curve. Isothermal calorimetry (ITC) experiments using will be carried out to determine binding constant (KB) and dissociation constant (KD) of Lp-PLA2 inhibitors (Ann. Rev. Biophy. 37, 135-151, 2008; J. Am. Chem. Soc. 125, 10570-10579, 2003)]. Reference compounds (eg: varespladib and darapladib) will be used for comparison.

In experiment [2] the target is T2, human COX-2 (Homo sapiens, UniProt P35354).
T2 construct: purchased Cayman Chemical
T2 sequence (P35354 18-604): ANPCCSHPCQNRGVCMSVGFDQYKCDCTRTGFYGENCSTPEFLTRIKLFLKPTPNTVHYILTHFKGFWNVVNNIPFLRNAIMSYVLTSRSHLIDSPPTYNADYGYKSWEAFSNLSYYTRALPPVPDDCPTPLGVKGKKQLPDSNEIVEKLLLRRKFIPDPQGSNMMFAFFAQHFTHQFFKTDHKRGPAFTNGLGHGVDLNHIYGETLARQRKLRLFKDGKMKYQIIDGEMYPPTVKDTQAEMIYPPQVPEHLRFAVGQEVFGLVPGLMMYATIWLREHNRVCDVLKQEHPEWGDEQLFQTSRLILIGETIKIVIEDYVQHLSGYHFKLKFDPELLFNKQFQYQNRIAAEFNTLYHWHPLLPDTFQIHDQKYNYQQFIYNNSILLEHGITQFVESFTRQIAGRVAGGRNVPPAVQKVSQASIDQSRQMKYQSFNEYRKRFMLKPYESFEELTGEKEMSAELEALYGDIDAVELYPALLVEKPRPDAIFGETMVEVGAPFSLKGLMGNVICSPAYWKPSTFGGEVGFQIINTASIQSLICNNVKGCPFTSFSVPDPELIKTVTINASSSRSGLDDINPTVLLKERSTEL
Kind of experiment: Cyclooxygenase (COX) inhibition assay, COX-2 (enzyme immunoassay). Particulars: Table 2. The procedure: (§2) The ability of the test compounds to inhibit (IC50 values, μM) human COX-1 and COX-2 (Cayman Chemical, Ann Arbor) is determined PGF2α, produced from COX reaction is measured by enzyme immunoassay. Either COX-1 or COX-2 enzyme in the presence of heme and various concentrations of test compound solutions (0.01-10 μM) is incubated after which substrate arachidonic acid is added. The concentration of the test compound causing 50% inhibition (IC50, μM) is calculated from the concentration-inhibition response curve.

Experiment [3] addresses T3, human Lp-PLA2 (Homo sapiens, UniProt Q13093).
T3 construct: purchased Cayman Chemical
T3 sequence (Q13093 22-441): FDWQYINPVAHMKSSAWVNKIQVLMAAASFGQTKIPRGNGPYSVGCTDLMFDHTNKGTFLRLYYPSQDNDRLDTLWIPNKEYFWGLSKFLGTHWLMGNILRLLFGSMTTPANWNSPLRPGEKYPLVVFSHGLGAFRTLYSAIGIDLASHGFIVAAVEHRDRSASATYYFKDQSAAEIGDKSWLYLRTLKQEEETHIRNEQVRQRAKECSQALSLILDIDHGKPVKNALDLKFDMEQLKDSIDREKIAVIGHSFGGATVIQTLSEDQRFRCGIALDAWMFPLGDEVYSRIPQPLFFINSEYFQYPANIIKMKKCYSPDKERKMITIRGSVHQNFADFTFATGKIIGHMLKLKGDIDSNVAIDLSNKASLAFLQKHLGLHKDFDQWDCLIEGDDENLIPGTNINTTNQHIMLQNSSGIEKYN
Kind of experiment: Lp-PLA2 inhibition assay (UV-spectrometry, 2-thio-PAF/DTNB, 96-well). The procedure:
The ability of synthesized indolizine derivatives (6) to inhibit (IC50 values, μM) human Lp-PLA2 (Cayman Chemical, Ann Arbor, Mich.) was determined based on a UV-spectrometry assay using 96-well plate format. […] The concentration of the test compound causing 50% inhibition (IC50, μM) was determined from the concentration-inhibition response curve (duplicate to quadruplicate determinations).
as §1

In experiment [4] the target is T4, human COX-1 (Homo sapiens, UniProt P23219).
T4 construct: purchased Cayman Chemical
The experiment is described as follows: Cyclooxygenase (COX) inhibition assay, COX-1 (enzyme immunoassay). To be noted: Table 2. The procedure:
as §2

Setting [5] is: Table 1, substrate 2-thio-PAF, DTNB, 0.1M Tris-HCl pH 7.2, read-out: Lp-PLA2 (IC50).
Setting [6] is: Table 2, read-out: Lp-PLA2 Inhibition (IC50).

pIC50: −log10 of the molar value. Like-named read-outs stand apart in the source and are kept apart here.

T4 sequence (P23219 24-599): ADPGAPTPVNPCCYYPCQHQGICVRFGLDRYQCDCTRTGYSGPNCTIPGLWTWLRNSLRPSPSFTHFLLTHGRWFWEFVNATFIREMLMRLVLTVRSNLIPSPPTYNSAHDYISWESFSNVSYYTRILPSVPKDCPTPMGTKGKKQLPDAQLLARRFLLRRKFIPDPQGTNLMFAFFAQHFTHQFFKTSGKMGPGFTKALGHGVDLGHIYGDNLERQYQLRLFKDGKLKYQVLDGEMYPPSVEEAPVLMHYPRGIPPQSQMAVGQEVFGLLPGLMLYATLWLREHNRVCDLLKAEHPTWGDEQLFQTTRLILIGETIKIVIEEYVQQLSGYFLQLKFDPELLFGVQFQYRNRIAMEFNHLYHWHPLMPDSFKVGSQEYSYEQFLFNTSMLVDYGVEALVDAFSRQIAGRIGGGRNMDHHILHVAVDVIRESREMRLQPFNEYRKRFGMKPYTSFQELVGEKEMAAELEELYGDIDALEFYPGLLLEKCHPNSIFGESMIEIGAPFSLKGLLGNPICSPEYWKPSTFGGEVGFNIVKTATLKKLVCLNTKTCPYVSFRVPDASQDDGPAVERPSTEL

For the compound `CC(=O)c1c(-c2ccccc2)c(C(=O)c2ccc(C)cc2)c2ccccn12` [Cmpd 2, 1-[1-(4-methylbenzoyl)-2-phenylindolizin-3-yl]ethanone], the pIC50 (as a rule, the IC50 on a negative log10 scale, so that one unit is a factor of ten) in experiment [1] was under 5.00; in experiment [2], under 5.00; in experiment [3] (setting [5]), 7.52; in experiment [3] (setting [6]) it was 7.70; in experiment [4] it was under 5.00. Moreover, the “Selectivity Index (sPLA2/Lp-PLA2)” value in experiment [1] was over 500.

With `CC(=O)c1c(-c2ccccc2)c(C(=O)c2ccc(F)cc2)c2ccccn12` [Cmpd 8, 1-[1-(4-fluorobenzoyl)-2-phenylindolizin-3-yl]ethanone], the negative-log IC50 (pIC50) in experiment [1] is under 5.00; in experiment [2] it was under 5.00; in experiment [3] (setting [5]), 6.60; in experiment [3] (setting [6]) it was 6.24; in experiment [4] it was under 5.00. For the same compound, the “Selectivity Index (sPLA2/Lp-PLA2)” value in experiment [1] is over 17.5.

Take `CC(=O)c1c(-c2ccc(C)cc2)c(C(=O)c2ccccc2)c2ccccn12` [Cmpd 11, 1-[1-benzoyl-2-p-tolylindolizin-3-yl]ethanone]: the negative logarithm of the IC50 (pIC50) in experiment [3] (setting [5]) is 7.70.

On to `CC(=O)c1c(-c2ccccc2)c(C(=O)c2ccccc2)c2ccccn12` [Cmpd 1], for which the pIC50 in experiment [1] is under 5.00; in experiment [2], under 5.00; in experiment [3] (setting [5]), 6.29; in experiment [3] (setting [6]), 6.29; in experiment [4] it was under 5.00. Also, the “Selectivity Index (sPLA2/Lp-PLA2)” value in experiment [1] is given as over 19.6.

Turning to `CC(=O)c1c(-c2ccccc2)c(C(=O)c2ccc(Cl)cc2)c2ccccn12` [Cmpd 10, 1-[1-(4-chlorobenzoyl)-2-phenylindolizin-3-yl]ethanone], the pIC50 in experiment [1] is under 5.00; in experiment [2] it was under 5.00; in experiment [3] (setting [5]), 6.15; in experiment [3] (setting [6]), 6.03; in experiment [4], under 5.00. The “Selectivity Index (sPLA2/Lp-PLA2)” value in experiment [1] is on record as over 10.6.

`CC(=O)c1c(-c2ccccc2)c(C(=O)c2ccc(F)c(F)c2)c2ccccn12` [Cmpd 12, 1-[1-(3,4-difluorobenzoyl)-2-phenylindolizin-3-yl]ethanone]: the pIC50 in experiment [3] (setting [5]) was 6.10.

`COc1ccc(C(=O)c2c(-c3ccccc3)c(C(C)=O)n3ccccc23)cc1` [Cmpd 5, 1-[1-(4-methoxybenzoyl)-2-phenylindolizin-3-yl]ethanone]: the negative-log IC50 (pIC50) in experiment [1] is under 5.00; in experiment [2], under 5.00; in experiment [3] (setting [5]), 6.12; in experiment [3] (setting [6]) it was 6.12; in experiment [4] it was under 5.00. In addition, the “Selectivity Index (sPLA2/Lp-PLA2)” value in experiment [1] is over 13.1.

As to `CC(=O)c1c(-c2ccccc2)c(C(=O)c2ccc(C(C)C)cc2)c2ccccn12` [Cmpd 3, 1-[1-(4-isopropylbenzoyl)-2-phenylindolizin-3-yl]ethanone], the pIC50 was under 5.00 in experiment [1]; under 5.00 in experiment [2]; 6.10 in experiment [3] (setting [5]); 6.10 in experiment [3] (setting [6]); under 5.00 in experiment [4]. Besides, the “Selectivity Index (sPLA2/Lp-PLA2)” value in experiment [1] is over 12.5.

With `CCCCc1ccc(C(=O)c2c(-c3ccccc3)c(C(C)=O)n3ccccc23)cc1` [Cmpd 4], the pIC50 in experiment [1] is under 5.00; in experiment [2] it was under 5.00; in experiment [3] (setting [5]) it was 6.54; in experiment [3] (setting [6]) it was 6.52; in experiment [4] it was under 5.00. For the same compound, in experiment [1], the “Selectivity Index (sPLA2/Lp-PLA2)” value is over 33.3.

In the case of `CSc1ccc(C(=O)c2c(-c3ccccc3)c(C(C)=O)n3ccccc23)cc1` [Cmpd 6, 1-[1-(4-(methylthio)benzoyl)-2-phenylindolizin-3-yl]ethanone], the pIC50 in experiment [1] was under 5.00; in experiment [2] it was under 5.00; in experiment [3] (setting [5]), 6.62; in experiment [3] (setting [6]), 6.60; in experiment [4], under 5.00. Besides, the “Selectivity Index (sPLA2/Lp-PLA2)” value in experiment [1] is over 40.

`CC(=O)c1c(-c2ccccc2)c(C(=O)c2ccc(C(F)(F)F)cc2)c2ccccn12` [Cmpd 7, 1-[2-phenyl-1-(4-(trifluoromethyl)benzoyl)indolizin-3-yl]ethanone]: the pIC50 in experiment [1] was under 5.00; in experiment [2], under 5.00; in experiment [3] (setting [5]) it was 7.22; in experiment [3] (setting [6]) it was 7.22; in experiment [4], under 5.00. For the same compound, the “Selectivity Index (sPLA2/Lp-PLA2)” value in experiment [1] is over 166.6.

For the compound `CC(=O)c1c(-c2ccccc2)c(C(=O)c2ccc(Br)cc2)c2ccccn12` [Cmpd 9, 1-[1-(4-bromobenzoyl)-2-phenylindolizin-3-yl]ethanone], the negative logarithm of the IC50 (pIC50) in experiment [1] was under 5.00; in experiment [2] it was under 5.00; in experiment [3] (setting [5]), 6.03; in experiment [3] (setting [6]), 6.15; in experiment [4], under 5.00. Besides, the “Selectivity Index (sPLA2/Lp-PLA2)” value in experiment [1] was over 14.2.

The record behind these values is patent US20150025105A1, “INDOLIZINE DERIVATIVES” (priority 2012, published 2015).
